For series [1], the target named is T1, ATX (Homo sapiens, UniProt Q13822). In words: Amplex Red Lyso-phospholipase D assay, human ATX. It is filed as biochemical. More on the design: purchased Sino Biological. Conditions: for inhibition at 30 µM: Table S2, at 30uM, read-out: %inhibition at 30uM. The protocol: (§1) All compounds proposed were assessed for their ATX inhibitory activity in vitro using the Amplex Red assay. The Amplex Red Lyso-phospholipase D assay is a fluorometry-based assay providing a sensitive method for measuring Lyso-phospholipase D (ATX) activity in vitro. In this enzyme-coupled assay, ATX activity is monitored indirectly using 10-acetyl-3,7-dihydrophenoxazine (Amplex Red reagent), a sensitive fluorogenic probe for H2O2. ATX initially cleaves the Lysophosphatidylcholine (LPC) substrate to yield choline and Lysophosphatidic acid (LPA), while choline gets subsequently oxidized by choline oxidase to betaine and H2O2. Lastly, H2O2, in the presence of horseradish peroxidase (HRP), reacts with Amplex Red reagent in a 1:1 stoichiometry to generate the highly fluorescent product resorufin.
The inhibition assay was performed as previously described with some modifications in order to accommodate the newly-discovered lag phase in ATX kinetics. To this end, and in order to provide adequate time to the hydrolysis of LPC by ATX, we added a 30min incubation period between ATX, inhibitors and LPC. Briefly, 2 μL of different concentrations of inhibitors diluted in DMSO (Sigma-Aldrich, St. Louis, MO, USA) were incubated with 50 µL of ATX 8 nM (human or mouse ATX from Sino Biological), and 48 µL reaction buffer (50 mM Tris-Cl pH 8.0 from Thermo Fisher Scientific, Waltham, MA, USA and 5 mM CaCl2 from Honeywell-Fluka, Charlotte, NC, USA) in a black 96-well microplate for 15 min at 37 °C. Thence, another 50 µL of reaction buffer with 200 μM LPC substrate 16:0 (Avanti Polar Lipids Inc, Alabaster, AL, USA) ([…]) was added to the reaction mixture and incubated for 30 min at 37 °C in order for ATX to convert LPC to LPA and choline. Finally, 50 µL of working solution containing 200 μM Amplex Red (Invitrogen, Carlsbad, CA, USA), 4 U/mL HRP (Sigma-Aldrich, St. Louis, MO, USA), 0.4 U/mL choline oxidase (Sigma-Aldrich, St. Louis, MO, USA) in 50 mM Tris-HCl pH 8.0 and 5 mM CaCl2 was added to measure the produced choline. The reaction was monitored at 37 °C in a fluorescence plate reader using excitation at 530 nm and reading at 590 nm, every 5 min for 30 min. The velocity of the reaction and the remaining activity of ATX were calculated at the linear phase of the reaction and dose-response inhibition graphs were plotted with GraphPad Software (GraphPad Software, San Diego, CA, USA). […] In order to evaluate a possible effect of the compounds on the second (choline oxidase) and third (HRP) enzymes of the Amplex Red assay, we also performed the assay in the absence of ATX but in the presence of the compounds. Instead of ATX, we added choline chloride at a final concentration of 2 µM so as the second and third steps of the assay could proceed normally.

The nature of the next series: Solubility (Table S1). Conditions: YES/NO.
The next series addresses T2, mouse ATX (Mus musculus, UniProt Q9R1E6).
T2 construct: purchased Sino Biological
Briefly: Amplex Red Lyso-phospholipase D assay, mouse ATX. It is filed as biochemical. Conditions: in vitro IC50 (mATX 2nM), Table S2, mATX 2nM. As to the method:
as §1
The inhibition assay was performed as previously described with some modifications in order to accommodate the newly-discovered lag phase in ATX kinetics. To this end, and in order to provide adequate time to the hydrolysis of LPC by ATX, we added a 30min incubation period between ATX, inhibitors and LPC. Briefly, 2 μL of different concentrations of inhibitors diluted in DMSO (Sigma-Aldrich, St. Louis, MO, USA) were incubated with 50 µL of ATX 8 nM (human or mouse ATX from Sino Biological), and 48 µL reaction buffer (50 mM Tris-Cl pH 8.0 from Thermo Fisher Scientific, Waltham, MA, USA and 5 mM CaCl2 from Honeywell-Fluka, Charlotte, NC, USA) in a black 96-well microplate for 15 min at 37 °C. Thence, another 50 µL of reaction buffer with 200 μM LPC substrate 16:0 (Avanti Polar Lipids Inc, Alabaster, AL, USA) (final concentrations of LPC and ATX are 50 µM and 2 nM, respectively) was added to the reaction mixture and incubated for 30 min at 37 °C in order for ATX to convert LPC to LPA and choline. Finally, 50 µL of working solution containing 200 μM Amplex Red (Invitrogen, Carlsbad, CA, USA), 4 U/mL HRP (Sigma-Aldrich, St. Louis, MO, USA), 0.4 U/mL choline oxidase (Sigma-Aldrich, St. Louis, MO, USA) in 50 mM Tris-HCl pH 8.0 and 5 mM CaCl2 was added to measure the produced choline. The reaction was monitored at 37 °C in a fluorescence plate reader using excitation at 530 nm and reading at 590 nm, every 5 min for 30 min. The velocity of the reaction and the remaining activity of ATX were calculated at the linear phase of the reaction and dose-response inhibition graphs were plotted with GraphPad Software (GraphPad Software, San Diego, CA, USA). […] In order to evaluate a possible effect of the compounds on the second (choline oxidase) and third (HRP) enzymes of the Amplex Red assay, we also performed the assay in the absence of ATX but in the presence of the compounds. Instead of ATX, we added choline chloride at a final concentration of 2 µM so as the second and third steps of the assay could proceed normally.

Series [2] concerns the target T1, ATX. Briefly: IC50 Eleanna (Table S2, method not described). It is filed as biochemical. Conditions: Table S2; read-out: IC50 Eleanna.
[3] abbreviates: recombinant human ATX 2 nM, LPC 16:0 substrate, Amplex Red, read-out: IC50 hATX.
Setting [4] is: in vitro IC50 (hATX 1nM), Table S2, hATX 1nM.

For `CC(C)(C)c1ccc(-c2nnc(SCC(=O)c3ccccc3)n2-c2ccc3c(c2)OCO3)cc1` [HTS02043, 2-[[4-(1,3-benzodioxol-5-yl)-5-(4-tert-butylphenyl)-1,2,4-triazol-3-yl]sulfanyl]-1-phenylethanone], the IC50 (commonly the point on the concentration scale where inhibition reaches its midpoint) at ATX [1] (setting [3]) was more than 100 µM. The Solubility result in the series “Solubility (Table S1)” is “YES”.

For `Cc1ccc(S(=O)(=O)CCSc2n[nH]c(=O)n2-c2ccc(OCc3ccccc3)cc2)cc1` [HTS02873, 4-[4-(benzyloxy)phenyl]-5-({2-[(4-methylphenyl)sulfonyl]ethyl}sulfanyl)-2,4-dihydro-3H-1,2,4-triazol-3-one], on ATX [1] (setting [3]), the IC50 was more than 100 µM. In “Solubility (Table S1)”, the Solubility entry is listed as “YES”.

In the case of `O=C(c1cccnc1Oc1ccc(Cl)cc1)N1CCN(C2c3ccccc3-c3ccccc32)CC1` [HTS07938, [2-(4-chlorophenoxy)pyridin-3-yl]-[4-(9H-fluoren-9-yl)piperazin-1-yl],methanone], at ATX [1] (setting [3]), the IC50 was more than 100 µM. Besides, the Solubility entry in “Solubility (Table S1)” is listed as “YES”.

Turning to `Cc1c(S(=O)(=O)N2CCN(C3c4ccccc4-c4ccccc43)CC2)sc2ccc(Cl)cc12` [HTS08762, 1-[(5-chloro-3-methyl-1-benzothiophen-2-yl)sulfonyl]-4-(9H-fluoren-9-yl)piperazine], the concentration for half-maximal inhibition (IC50) at ATX [1] (setting [3]) was more than 100 µM. Further, the Solubility result in “Solubility (Table S1)” was “YES”.

On to `Cc1nn(-c2ccccc2)c2nc(OCC(=O)c3ccc(Br)cc3)c(C#N)c(-c3cccnc3)c12` [HTS09079, 6-[2-(4-bromophenyl)-2-oxoethoxy]-3-methyl-1-phenyl-4-pyridin-3-,ylpyrazolo[4,5-e]pyridine-5-carbonitrile], for which, on ATX [1] (setting [3]), the IC50 was more than 100 µM. Besides, the Solubility entry in “Solubility (Table S1)” is recorded as “YES”.

As for `Cc1ccc(C2=CC(c3cn(-c4ccccc4)nc3-c3ccccc3)N3C(=O)CSC3=N2)cc1` (stereo not shown) [HTS09893, 5-(1,3-diphenylpyrazol-4-yl)-7-(4-methylphenyl)-5H-[1,3]thiazolo[3,2-a]pyrimidin-3-one], the IC50 at ATX [1] (setting [3]) is more than 100 µM. Besides, in the series “Solubility (Table S1)”, the Solubility entry is “YES”.

`O=C(CN1CCN(C2c3ccccc3-c3ccccc32)CC1)c1ccc2c(c1)OCO2` [HTS10658, 1-(1,3-benzodioxol-5-yl)-2-[4-(9H-fluoren-9-yl)piperazin-1-yl]ethanone]: the IC50 on ATX [1] (setting [3]) is more than 100 µM. For the same molecule, the Solubility result in the series “Solubility (Table S1)” is reported as “YES”.

For `Nc1ncnc2c1ncn2CCc1ccccc1` [HTS11215, 9-phenethyl-9H-purin-6-amine], the IC50 at ATX [1] (setting [3]) was more than 100 µM. In addition, the Solubility result in the series “Solubility (Table S1)” is listed as “YES”.

Take `NC(=NOC(=O)c1cncc(C#Cc2ccccc2)c1)c1cccc(C(F)(F)F)c1` [KM08386, O1-{[5-(2-phenyleth-1-ynyl)-3-pyridyl]carbonyl}-3-(trifluoromethyl)benzene-1-carbohydroximamide]: on ATX [1] (setting [3]), the IC50 was more than 100 µM. Besides, in the series “Solubility (Table S1)”, the Solubility result is given as “YES”.

With `CCOC(=O)c1c(CN2CCCC2)n(-c2ccccc2)c2cc(Br)c(OC)cc12` [KM-3, ethyl 6-bromo-5-methoxy-1-phenyl-2-(pyrrolidin-1-ylmethyl)indole-3-carboxylate], the inhibition (usually the percentage by which the read-out fell short of the control) at 30 µM on ATX [1] was 17%. The IC50 was 54 µM against ATX [1] (setting [4]) and 57 µM against mouse ATX.

As for `COc1ccccc1NC(=S)N1CCn2cccc2C1c1ccc(OC)c(OC)c1` (stereo not shown) [KM-41, 1-(3,4-dimethoxyphenyl)-N-(2-methoxyphenyl)-3,4-dihydro-1H-pyrrolo[1,2-a]pyrazine-2-carbothioamide], the IC50 on ATX [2] stood at 0.3 µM; against ATX [1] (setting [4]), 38 µM; against mouse ATX it was 60 µM. Also, at ATX [1], the inhibition at 30 µM is 33.5%.

Consider `O=C(NC(=O)c1ccc(-c2ccc(Cl)cc2)s1)Nc1cc(C(F)(F)F)cc(C(F)(F)F)c1` [MBE00201, N-[[3,5-bis(trifluoromethyl)phenyl]carbamoyl]-5-(4-chlorophenyl)thiophene-2-carboxamide], for which, at ATX [1] (setting [3]), the 50% inhibitory concentration (IC50) is more than 100 µM. In the series “Solubility (Table S1)”, the Solubility result is “YES”.

As to `O=C(C(=Cc1ccccc1)n1ccnc1)c1ccccc1OCc1ccccc1` [NRB02626, 1-[2-(benzyloxy)phenyl]-2-(1H-imidazol-1-yl)-3-phenylprop-2-en-1-0ne], the IC50 on ATX [1] (setting [3]) was more than 100 µM. Further, the Solubility entry in “Solubility (Table S1)” is “YES”.

For `O=C1C2=C([CH]C=C[CH]2)C(=O)N1CN(Cc1csc2ccccc12)CN1C(=O)c2ccccc2C1=O` [PD00399], the IC50 on ATX [1] (IC50 hATX, recombinant human ATX 2 nM, LPC 16:0 substrate, Amplex Red) was more than 100 µM. Moreover, the Solubility result in the series “Solubility (Table S1)” is “YES”.

Regarding `COc1ccc(C2C(C(=O)O)c3ccccc3C(=O)N2Cc2ccc(F)cc2)cc1` (stereo not shown) [PD00668, 2-(4-fluorobenzyl)-3-(4-methoxyphenyl)-1-oxo-1,2,3,4-tetrahydroisoquinoline-4-carboxylic acid], on ATX [1] (setting [3]), the IC50 was more than 100 µM. Besides, the Solubility result in the series “Solubility (Table S1)” is listed as “YES”.

As to `FC(F)(F)c1ccc2c(c1)nc(SCc1ccccc1)n2CCc1ccccc1` [RDR02791, 2-benzylsulfanyl-1-(2-phenylethyl)-5-(trifluoromethyl)benzimidazole], the IC50 on ATX [1] (setting [3]) is more than 100 µM. The Solubility result in the series “Solubility (Table S1)” is “YES”.

`CC(=O)Oc1ccccc1C(=CC=C(c1ccccc1)c1ccccc1)N1CCOCC1` [RF01254, 2-(1-morpholino-4,4-diphenylbuta-1,3-dienyl)phenyl acetate]: the IC50 at ATX [1] (setting [3]) was more than 100 µM. Moreover, the Solubility entry in “Solubility (Table S1)” is given as “YES”.

`COc1ccc(-n2c(-c3ccc(Cl)cc3)cc(-c3cccs3)c2-c2ccccc2)cc1` [RG00099, 5-(4-chlorophenyl)-1-(4-methoxyphenyl)-2-phenyl-3-(2-thienyl)-1H-pyrrole]: on ATX [1] (setting [3]), the IC50 is more than 100 µM. Also, the Solubility entry in the series “Solubility (Table S1)” was “YES”.

On to `NC(=NOC(=O)c1ccc(-c2cccs2)s1)c1cccc(C(F)(F)F)c1` [SEW02612, N'-{[5-(2-thienyl)-2-thienylcarbonyl]oxy}-3-(trifluoromethyl)benzenecarboximidamide], for which the IC50 at ATX [1] (setting [3]) is more than 100 µM. For the same molecule, the Solubility result in the series “Solubility (Table S1)” is “YES”.

In the case of `O=S(=O)(Nc1cc(-c2cccs2)nn1-c1ccc(F)cc1)c1ccc(-c2cc(C(F)(F)F)on2)s1` [SP00998], the IC50 at ATX [1] (setting [3]) is more than 100 µM. In addition, in “Solubility (Table S1)”, the Solubility result was “YES”.

Source of the values: article PMC7582705, “Structure-Based Discovery of Novel Chemical Classes of Autotaxin Inhibitors” (International Journal of Molecular Sciences, 2020).
